Where “and” joins values, the source holds several entries; their conditions need not be identical. Identical values can stand only once.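 Compound exposure: 48 hours, 5 concentrations, 96-well plates. GI50 = concentration required for 50% inhibition of growth. TGI: concentration producing complete growth inhibition.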
Assays:
Test in all cases: NCI anticancer screen, dose series, 48 h
[1] = system: MCF7 breast
[2] = system: NCI-H226 lung
[3] = system: NCI-H23 lung
[4] = system: NCI-H522 lung
[5] = system: OVCAR-4 ovarian
[6] = system: OVCAR-5 ovarian
[7] = system: OVCAR-8 ovarian
[8] = system: SK-MEL-28 melanoma
[9] = system: SNB-19 CNS
[10] = system: HL-60(TB) leukemia

## CCOC(=O)C(Cc1c[nH]c2cc([N+](=O)[O-])ccc12)(NC(C)=O)C(=O)OCC
[1]
  TGI: > 1000 µM
[2]
  GI50: > 769 µM
  TGI: > 1000 µM
[3]
  GI50: 138 µM
  TGI: > 1000 µM
[4]
  TGI: > 1000 µM
[5]
  GI50: > 1000 µM
  TGI: > 1000 µM
[6]
  GI50: > 833 µM
  TGI: > 1000 µM
[7]
  GI50: 30.3 µM and 104 µM
  TGI: > 1000 µM
[8]
  GI50: > 1000 µM
  TGI: > 1000 µM
[9]
  GI50: 148 µM
  TGI: > 824 µM

## O=C(O)c1ccc(NS(=O)(=O)c2cccc3cccnc23)cc1
[1]
  GI50: > 100 µM
  TGI: > 100 µM
[2]
  GI50: > 100 µM
  TGI: > 100 µM
[3]
  GI50: > 100 µM
  TGI: > 100 µM
[4]
  GI50: > 100 µM
  TGI: > 100 µM
[5]
  GI50: > 100 µM
  TGI: > 100 µM
[6]
  GI50: > 100 µM
  TGI: > 100 µM
[7]
  GI50: > 100 µM
  TGI: > 100 µM
[8]
  GI50: > 100 µM
  TGI: > 100 µM
[9]
  GI50: > 100 µM
  TGI: > 100 µM

## Cc1cc2c(C(N)=O)cccc2n1-c1nc2c(c(NCc3ccccc3)n1)CCCN2
[10]
  GI50: 0.228 µM
  TGI: 1.01 µM
[1]
  GI50: 0.0853 µM
  TGI: 0.747 µM
[2]
  GI50: 0.158 µM
  TGI: 0.332 µM
[4]
  GI50: 0.164 µM
  TGI: 0.359 µM
[5]
  GI50: 0.178 µM
  TGI: 0.396 µM
[6]
  GI50: 0.23 µM
  TGI: 0.585 µM
[7]
  GI50: 0.182 µM
  TGI: 0.431 µM
[8]
  GI50: 0.246 µM
  TGI: 0.593 µM
[9]
  GI50: 0.296 µM
  TGI: 0.765 µM

## O=C(Nc1ccc2oc(=O)c(C(=O)O)cc2c1)Oc1ccccc1
[1]
  TGI: > 100 µM
[2]
  TGI: > 100 µM
[3]
  TGI: > 100 µM
[4]
  TGI: > 100 µM
[5]
  TGI: > 100 µM
[6]
  TGI: > 100 µM
[7]
  TGI: > 100 µM
[8]
  TGI: > 100 µM
[9]
  TGI: > 100 µM

## N#CC(C#N)=CN1CCN(C(=O)c2ccccc2)C1=S
[10]
  GI50: 33.5 µM
  TGI: 79.4 µM
[1]
  GI50: 16.7 µM
  TGI: 55.9 µM
[3]
  GI50: 26.1 µM
  TGI: 60.1 µM
[4]
  GI50: 15.9 µM
  TGI: 43.7 µM
[5]
  GI50: 59.3 µM
  TGI: > 100 µM
[7]
  GI50: 77 µM
  TGI: > 100 µM
[8]
  GI50: 45.4 µM
  TGI: > 100 µM
[9]
  GI50: > 100 µM
  TGI: > 100 µM

## C=C1C(=O)O[C@@H]2C[C@@H](C)[C@@H]3[C@@H](OC4OC(COC(C)=O)C(O)C(O)C4O)CC(=O)[C@@]3(C)C[C@H]12 (some centres not stated)
[1]
  TGI: 2.19 µM
[2]
  TGI: 26.1 µM
[3]
  TGI: 25.7 µM
[4]
  TGI: 0.301 µM
[5]
  TGI: 12.5 µM
[6]
  TGI: 8.07 µM
[7]
  TGI: 3.7 µM
[8]
  TGI: 6.27 µM
[9]
  TGI: 45.1 µM

## Cl.Fc1c[c-]c(-c2ccccn2)c(F)c1.[Pt].c1ccc([PH+](CC[PH+](c2ccccc2)c2ccccc2)c2ccccc2)cc1
[10]
  GI50: 0.0563 µM
  TGI: 0.319 µM
[1]
  GI50: 0.0625 µM
  TGI: 1.1 µM
[2]
  GI50: 0.184 µM
  TGI: 1.13 µM
[5]
  GI50: 0.187 µM
  TGI: 1.01 µM
[6]
  GI50: 0.178 µM
  TGI: 0.919 µM
[8]
  GI50: 0.167 µM
  TGI: 1.4 µM
[9]
  GI50: 0.0656 µM
  TGI: 1.26 µM

## Cc1nc(Nc2ccc(F)c(Cl)c2)sc1C(=O)O
[10]
  GI50: 3.41 µM
  TGI: 8.17 µM
[1]
  GI50: 1.53 µM
  TGI: 8.18 µM
[2]
  GI50: 1.77 µM
  TGI: 5.37 µM
[4]
  GI50: 1.1 µM
  TGI: 3.17 µM
[5]
  GI50: 1.74 µM
  TGI: 9.12 µM
[6]
  GI50: 1.7 µM
  TGI: 4.1 µM
[7]
  GI50: 2.14 µM
  TGI: 4.82 µM
[8]
  GI50: 1.77 µM
  TGI: 3.68 µM
[9]
  GI50: 1.93 µM
  TGI: 5.22 µM

## NC1CCC[C@@H](O)[C@H]1O (some centres not stated)
[10]
  TGI: > 100 µM
[1]
  TGI: > 100 µM
[2]
  TGI: > 100 µM
[3]
  TGI: > 100 µM
[4]
  TGI: > 100 µM
[6]
  TGI: > 100 µM
[7]
  TGI: > 100 µM
[8]
  TGI: > 100 µM
[9]
  TGI: > 100 µM
